# Laboratory results published in PMC6373292 (Pharmaceutical Research, 2019).
# “Also recorded” adds a separate entry of the source.
# Key:
# [1] = test system: porcine subcutaneous arteries; assay: Ex vivo vasorelaxation of U46619-preconstricted arteries (wire myograph); set-up: species or system pig; details: isolated porcine subcutaneous arteries preconstricted with U46619 (1 μM); for Effect on vascular tone (vasorelaxation): niacinamide at 200 mM, 1-methyl-niacinamide cumulative concentrations, two animals
# Experimental: Vessels were cut into 1.5 mm cylindrical segments, threaded onto two 40 μm diameter stainless steel wires and mounted on a Mulvany-Halpern myograph (Danish Myograph Technology, A/S). […] Contractile force was recorded via a PowerLab unit and Labchart software (AD Instruments). Vessels were pre-stretched in calcium-free PSS to a lumen diameter of 0.9 × L100, where L100 is an estimate of the diameter of the vessel under a passive transmural pressure of 100 mmHg. This was performed using the normalization module in LabChart7.
# skin perfusion [2] = assay: Laser speckle contrast analysis (LASCA) of skin perfusion in pigs; format: in vivo, pig; details: anesthetized pigs, intradermal injection in neck, niacinamide 170 mM, 1-methyl-niacinamide 170 mM, prostaglandin E1 10 μg/ml, 0–15 min, n=4
# Experimental: Formulations of prostaglandin E1 (10 μg/ml), niacinamide (170 mM) or saline were injected intradermally in the neck area of anesthetized pigs. A PeriCam PSI system (Perimed, Sweden) was used to record one image per second for approximately 15 min. Perfusion units per min were compared using one-way ANOVA.
# Niacinamide increases subcutaneous blood flow in pigs
# Video: Representative LASCA perfusion experiment.
# LASCA images were recorded following intradermal injection of saline, prostaglandin E1 and niacinamide formulations into the neck area of anesthetized pigs. Saline (170 mM NaCl, 10 mM phosphate, pH 7.4) was injected into region 1 (blue) and 6 (black), 10 µg/ml prostaglandin E1 (170 mM NaCl, 10 mM phosphate, pH 7.4) was injected into region 2 (red), 170 mM niacinamide (85 mM NaCl, 10 mM phosphate, pH 7.4) was […]
# was necessary). Compound x (region 4, dark red) was an additional compound studied for vasodilation but is not included in the present analysis.
# (1 picture or pasted object on this page, not shown here)
# [3] = Disappearance of niacinamide and 1-methyl-niacinamide from subcutaneous injection depots in pigs (tissue sampling, LC-MS/MS); details: 170 mM, 50 μl, LC-MS/MS of tissue homogenate, n=9
# Experimental: Pigs (70–90 kg) were anesthetized using Zoletil mixture (1 mg/10 kg; Virbac, Denmark) with intravenous supplement of propolipid (Fresenius Kabi, Sweden). […] Tissue samples measuring ~2 x 2 cm were excised at 0 min (acute), 2, 5, 15 or 60 min after injection and immediately frozen in 2-methyl-butane. […] Following euthanasia by overdose of pentobarbital (Lundbeck, Denmark), tissue samples measuring ~10 x 10 cm were excised and injected to obtain ex vivo 0 min (acute) and 60 min depots.
# Tissue samples were cut into smaller blocks, thawed and diluted with phosphate buffer (180 mM; pH 7.4) at a ratio of 3 ml to 1 g of tissue. Tissue was homogenized with two cycles (one cycle consisting of 10 sec homogenization, 60 sec pause, 10 sec homogenization) at 8800 rpm (Precellys Evolution homogenizer, Bertin Instruments, France) or until the sample was considered homogenized.
# Protein was precipitated from the tissue homogenate by adding three volumes of acetonitrile. Samples were centrifuged for 30 min at 4°C and the supernatants analyzed on a QTRAP® Triple Quadrupole coupled with an Acquity liquid chromatography system (Waters, USA).
# skin perfusion [4] = assay: Laser Doppler imaging (LDI) of skin perfusion in pigs; format: in vivo, pig; details: anesthetized pigs, subcutaneous injection at 3 mm depth, niacinamide 170 mM, prostaglandin E1 10 μg/ml, baseline corrected, n=4
# Experimental: LDI (moorLDI2-IR, Moor Instruments, UK) was used to record a series of images (approximately one image per 3.5 min for approximately 30 min) following a protocol in anesthetized pigs similar to the one used for LASCA. Due to the increased skin penetration depth of the LDI system, subcutaneous injections were performed at a 3 mm depth using a 32G needle. Injections were performed in areas that could be scanned in the same image.
# [5] = test system: regional subcutaneous blood flow; assay: Xenon-133 washout after injection into the neck of pigs; format: in vivo, pig; details: vehicle without insulin aspart, niacinamide 170 mM (n=21), prostaglandin E1 4 μg/ml (n=8), mean (±SD), saline –0.71
# Experimental: For each experiment, an insulin aspart containing vehicle was injected on one side of a pig, while the same vehicle without insulin aspart was injected into the other side. Prostaglandin E1 was included as a positive control. A gamma sensor was mounted over each injection site to measure the decay in Xe-133 signal. […] Regression line slopes in the 0–15 min interval were compared using one-way analysis of variance (ANOVA).
SMILES,Effect on vascular tone (vasorelaxation) [1],Skin perfusion by LASCA compared with saline (skin perfusion [2]),Amount remaining in subcutaneous depot 60 min post-injection [3],Skin perfusion by LDI compared with saline (skin perfusion [4]),"Xe-133 washout regression line slope, 0–15 min interval [5]","EC50 ([1]; Sus scrofa, sc, cumulative 1 μM–200 mM, PSS 37°C pH 7.4, six animals)"
C[n+]1cccc(C(N)=O)c1 [1-methyl-niacinamide],no substantial effect on vascular tone; also recorded: vasorelaxation was not detected,did not increase the LASCA signal,–,–,–,–
NC(=O)c1cccnc1 [niacinamide],maximal vasorelaxation,intermediate increase,decreased to amounts comparable to the blank control,increased skin perfusion,–1.24 % per min,11.3 mM
CCCCC[C@H](O)/C=C/[C@H]1[C@H](O)CC(=O)[C@@H]1CCCCCCC(=O)O [prostaglandin E1],–,clear increase in skin perfusion,–,increased skin perfusion,–2.47 % per min,–
